# Measurements published in patent publication US9347089B2, “Therapeutic and diagnostic strategies” (Children's Medical Center Corporation, priority 2008, dated 2016).
# Key:
# K562 cells [1] = assay: Chromosome breakage analysis after γ-irradiation; format: cell-based, human; details: for Chromosome breaks and fragments versus control cells: 24 hr after 0.75 Gy γ-irradiation
# Description: K562 and HepG2 cultures were exposed in duplicate wells to indicated doses of γ-irradiation and incubated at 37° C. for indicated times in 5% CO2. Cells were harvested and processed for chromosomal analysis following standard methods (S1). 50-75 Wright-stained metaphases for each condition were scored for chromosomal aberrations.
# K562 cells [2] = assay: Cell proliferation by thymidine uptake; format: cell-based, human; details: TPA-treated K562 cells, by 12 h
# miR-24 = miR-24 level by qRT-PCR relative to U6; format: cell-based, human
# Description: (§1) HepG2 cells were grown in DMEM supplemented with 10% FCS. HL60 and K562 cells were grown in RPMI-1640 supplemented with 10% FCS. K562 cells (0.5×10^6 cells/ml) were treated with TPA (16 nM, 2 d) or Hemin (100 μM, 4 d) for differentiation into megakaryocytes or erythrocytes, respectively. To induce macrophage or granulocyte differentiation, HL60 cells (0.5×10^6 cells/ml) were treated with TPA (16 nM, 2 d) or DMSO (1.25%, 5 d), respectively. We isolated human polymorphonuclear neutrophils (PMN) from whole blood after removing mononuclear cells and platelets by Ficoll-Hypaque density gradient centrifugation. Erythrocytes were lysed by treatment with ice-cold isotonic lysis buffer (0.155 M NH4Cl, pH 7.4). The remaining PMN cells were washed with Hanks' balanced salt solution and suspended in RPMI medium containing 10% (v/v) FCS. We isolated human macrophages from peripheral blood as described in Song et al. 2003.
# (§2) Total RNA was isolated using Trizol (Invitrogen) and reverse transcribed using random hexamers and superscript II reverse transcriptase (Invitrogen). qRT-PCR was performed in triplicate samples using the SYBR Green master mix (Applied Biosystems) and the BioRad iCycler. Primers are provided in Supplemental Table 1. Results were normalized to GAPDH. miRNA quantitative PCR was done in triplicate using the TaqMan MicroRNA Assay from Applied Biosystems as per the manufacturer's instructions and normalized to U6 SnRNA.
# (§3) HepG2 cells (2.5×10^5/well) were reverse transfected with 30 nM miRNA […] (cel-miR-67) mimics (Dharmacon) using NeoFx (Ambion) following the manufacturer's instructions. K562 cells were transfected with miRNA or control mimics (100 nM) using Amaxa nucleofection following the manufacturer's protocol. K562 cells were treated with TPA (16 nM, 2 d) and were transfected with 100 nM miR-24 ASO using lipofectamine 2000 (Invitrogen) and 36 h later these cells were exposed to indicated concentrations of bleomycin and cell viability was assessed 2 d later.
# H2AX mRNA = H2AX mRNA level by qRT-PCR; format: cell-based, human
# Description: as §1, §2, §3
# K562 cells [3] = assay: Cell viability assay after genotoxic drug, K562; format: cell-based, human; details: for Sensitivity to DNA damage (viability after bleomycin): viability 2 d later
# Description: as §3
# (§4) microRNA-transfected K562 or HepG2 cells were seeded (2×10^3 cells/100 μl) into octuplicate microtiter wells, incubated overnight, and then treated with indicated reagents or medium for 48 h. Viability was measured by CyQuant Cell Proliferation Assay Kit as per manufacturer's instructions (Molecular Probes). Results were expressed as OD520 relative to that of untreated cells.
# H2AX = H2AX protein level by immunoblot (densitometry relative to H3); format: cell-based, human
# CHEK1 = CHEK1 protein level by immunoblot; format: cell-based, human; details: K562 cells
# Description: K562 cells (1×10^6) were transfected with miR-24 mimics or control miRNA mimics (cel-miR-67) as above and 48 h later whole cell lysates were prepared using RIPA buffer (150 mM NaCl, 1% NP-40, 0.5% sodium deoxycholate, 0.1% SDS, 50 mM Tris, pH 8.0). Protein samples were quantified using Bradford reagent (BioRad) and resolved on 10% SDS-PAGE gels and analyzed by immunoblot probed with antibodies to H2AX (Upstate Biotech), CHEK1 (cell Signaling), histone H3 (Cell Signaling), tubulin (Sigma). All antibodies were used at a dilution of 1:1000.
# K562 cells [4] = assay: Single cell gel electrophoresis (comet) assay; format: cell-based, human
# HepG2 cells [5] = assay: Cell cycle analysis by propidium iodide flow cytometry; format: cell-based; details: HepG2 cells transfected 48 hr
# 3′UTR of H2AX mRNA = assay: Luciferase reporter assay with H2AX 3′UTR / MRE reporters in HepG2 cells; format: cell-based
# Description: HepG2 cells (2.5×10^5/well) were reverse transfected in triplicate with 30 nM miR-24 mimic, miRNA-328 mimic or control miRNA mimic. Two days later, cells were transfected using Lipofectamine 2000 (Invitrogen) with psiCHECK2 (Promega) vector (0.5 μg/well) containing the 3′UTR of H2AX cloned in the multiple cloning site of Renilla luciferase or control. After 24 hr luciferase activities were measured using the Dual Luciferase Assay System (Promega) and TopCount NXT microplate reader (Perkin Elmer) per manufacturer's instructions. Data were normalized to Firefly luciferase. To test whether H2AX mRNA is directly regulated by miR-24, we cloned the two predicted MREs in the H2AX 3′ UTR into the multiple cloning site of psiCHECK2 and also the mutant versions that disrupted base-pairing between the binding sites and miR-24. HepG2 cells were cotransfected with these plasmids and miR-24 or control mimics for 48 h using Lipofectamine 2000, before we performed the luciferase assays as described above.
# HepG2 cells [6] = assay: Cell viability assay after genotoxic drug, HepG2; format: cell-based
# Description: as §3, §4
# UBC mRNA = UBC mRNA level by qRT-PCR; format: cell-based; details: miR-24 over-expression in HepG2 cells
# Description: as §2, §3
molecule,measurement,setting,value
"CCCCCCCCCCCCCC(=O)O[C@@H]1[C@@H](C)[C@@]2(O)[C@@H](C=C(CO)C[C@]3(O)C(=O)C(C)=C[C@@H]23)[C@@H]2C(C)(C)[C@]12OC(C)=O [TPA, 12-O-tetradecanoylphorbol-13-acetate]",Chromosome breaks and fragments versus control cells,K562 cells [1],significantly more sensitive
same,Thymidine incorporation,K562 cells [2],no thymidine incorporation
same,miR-24 level during differentiation,miR-24; HL60 cells,increases
same,miR-24 level during differentiation,miR-24; K562 cells,increases
same,"Decline of H2AX mRNA, primers specific for the longer transcript",H2AX mRNA; HL60 cell differentiation,two-fold
same,"Decline of H2AX mRNA, primers specific for the longer transcript",H2AX mRNA; K562 cell differentiation,two-fold
same,Sensitivity to DNA damage (viability after bleomycin),K562 cells [3],significantly hypersensitive
same,Drop of H2AX protein level,H2AX; HL60 cells after TPA induction,4 fold
same,Drop of H2AX protein level,H2AX; K562 cells after TPA induction,14 fold
hemin,miR-24 level during differentiation,miR-24; K562 cells,increases
same,"Decline of H2AX mRNA, primers specific for the longer transcript",H2AX mRNA; K562 cell differentiation,two-fold
C[S+](C)[O-] [DMSO],miR-24 level during differentiation,miR-24; HL60 cells,increases
same,"Decline of H2AX mRNA, primers specific for the longer transcript",H2AX mRNA; HL60 cell differentiation,two-fold
"miR-24: microRNA miR-24 (SEQ ID NO: 1), transfected as synthetic mimic (Dharmacon) for over-expression (UGGCUCAGUUCAGCAGGAACAG; synthetic mimic, further chemistry not given here)",Chromosomal instability versus control cells,K562 cells [1]; 0.38 Gy,more chromosomal instability
same,Chromosome breaks versus control cells,K562 cells [1]; 24 hr after 0.38 Gy,not significantly more breaks
same,Chromosome breaks and fragments versus control cells,K562 cells [1],twice as many
same,CHEK1 protein,CHEK1,decrease
same,Decrease of H2AX mRNA,"H2AX mRNA; miRNA over-expression in HepG2 cells, 48 hr, normalized to GAPDH",2 fold
same,Effect on survival with miR-24-insensitive H2AX over-expression,K562 cells [3],fully rescued
same,Hypersensitivity to bleomycin with miR-24-insensitive CHEK1 expression,K562 cells [3]; CHEK1 cDNA lacking 3′UTR,not rescued
same,Sensitivity to DNA damage (viability after bleomycin),K562 cells [3],significantly hypersensitive
same,Comet tails compared to control miRNA-transfected cells,K562 cells [4]; K562 cells after bleomycin treatment,5 fold
same,Comet moment after bleomycin with H2AX rescue,"K562 cells [4]; K562 cells co-transfected with H2AX expression plasmid lacking 3′UTR, versus miRNA control and vector",no significant increase
same,Basal comet moment,"K562 cells [4]; K562 cells, no bleomycin",not significantly changed
same,Repair of bleomycin-induced DNA damage by comet assay,K562 cells [4]; TPA-treated K562 cells,significantly enhances repair
same,G1 compartment,HepG2 cells [5],increases
same,Reduction of luciferase activity,3′UTR of H2AX mRNA; H2AX 3′UTR-containing reporter,more than 2 fold
same,"Effect on luciferase activity, mutated MRE reporters",3′UTR of H2AX mRNA; MREs with mutated seed region,little effect
same,Luciferase activity from control reporters,3′UTR of H2AX mRNA; control reporter (vector),unchanged
same,"Reduction of luciferase activity, wild-type miR-24 MRE reporters",3′UTR of H2AX mRNA; either wild-type MRE inserted,approximately four-fold
same,H2AX protein,H2AX; K562 cells transfected with mimic,reduces H2AX comparably to TPA differentiation
same,Reduction of H2AX protein expression,"H2AX; miRNA over-expression in HepG2 cells, 48 hr",−8 fold
same,Effect on survival with miR-24-insensitive H2AX over-expression,HepG2 cells [6]; HepG2 cells,fully rescued
same,Cytotoxicity of bleomycin,HepG2 cells [6]; mimic-transfected HepG2 cells,significantly enhanced cytotoxicity
same,Cytotoxicity of cisplatin,HepG2 cells [6]; mimic-transfected HepG2 cells,significantly enhanced cytotoxicity
same,Effect on UBC mRNA levels,UBC mRNA,does not alter
